A short description of data set [1]: Critical aggregation concentration by pyrene fluorescence (I1/I3). Conditions: for CAC Fluorescence, CCM:W, CAC1 / CAC Fluorescence, CCM:W, CAC2: 1/1 bacterial cell culture medium/water; for CAC Fluorescence, CCM:W, CAC1 / CAC Fluorescence, CCM:W, CAC2 / CAC Fluorescence, W: 25 °C; for CAC Fluorescence, CCM:W, CAC1: first break point; for CAC Fluorescence, CCM:W, CAC2: second break point; for CAC Fluorescence, W: in water, from the break point. Format: physicochemical. The text has this:
To investigate the microenvironment of the critical aggregation concentration (CAC) for self-assembly in water and in the bacterial cell culture medium by fluorescence, the intensity ratio of two of the peaks (I1/I3) of the pyrene fluorescence spectrum was used. Plots of the pyrene I1/I3 ratio as a function of the total surfactant concentration show a typical sigmoidal decrease in the region where self-assembly takes place. At low concentrations, this ratio is larger as it corresponds to a polar environment for pyrene. When the surfactant concentration increases this ratio decreases rapidly, as the self-assembly favors the location of pyrene in a more hydrophobic environment, until reaching a roughly constant value because of the full incorporation of the probe into the hydrophobic region of the aggregates. Different approaches have been used to estimate CAC values from I1/I3 ratios. The most common approach is the use of the break points, either directly or by extrapolating the values from the intersection of the two straight lines defined at the constant and variable regions of the I1/I3 sigmoidal curve. As CAC represents the threshold of concentration at which self-aggregation starts, the corresponding value can be estimated from the break point at lower concentration (see Figures S9–S14). Fluorescence studies were carried out using MilliQ® water and 1/1 MilliQ® water/bacterial cell culture medium, because with the pure cell culture medium, a strong broad fluorescence emission band was observed precluding an accurate analysis. […] The corresponding CACs obtained in water and in the 1/1 mixture of water/bacterial cell culture medium by fluorescence are shown in Table 2. Pyrene was used as a fluorescence probe to determine the CAC of the compounds in water and 1/1 water/bacterial cell culture medium at 25 ± 1 °C. Fluorescence measurements were performed with a Spex Fluorolog 3-11 instrument equipped with a 450 W xenon lamp (right angle mode). Firstly, a stock pyrene solution of 1.98 × 10^−4 mol/L was prepared in ultrapure methanol. Then, solutions of the imidazole and imidazolium salt compounds (ranging from 6 to 3 × 10^−3 mmol/L) were prepared in different vials and 5 μL of pyrene solution was transferred into the vials, reaching a final pyrene concentration of 9.89 × 10^−7 mol/L in each vial. Fluorescence spectra of pyrene were recorded from 200 to 650 nm after excitation at 337 nm, and the spectra were not corrected for the Xe lamp spectral response. The slit width was set at 5 nm for both excitation and emission. The peak intensities at 373 and 385 nm were determined as I1 and I3, respectively. The ratios of the peak intensities at 373 and 385 nm (I1/I3) for the emission spectra were recorded as a function of the logarithm of concentration. The CAC values were taken from the break point. Samples were excited with a 337 nm NanoLED.

Data set [2] relates to Escherichia coli DH5α. Description: Bacterial cell viability assay (Resazurin), MBC. Conditions: read-out: E. coli MBC. Format: cell-based. On the procedure:
(§1) The in vitro antibacterial activities of the synthesized compounds were examined against E. coli and B. subtilis. Bacteria were incubated in culture media with varying concentrations of the examined compound and the antibacterial properties were determined by observation of the optical density at 560 nm (bacteriostatic activity) and by the Resazurin cell viability assay (bactericidal activity). The corresponding minimal bactericidal concentration (MBC) and minimum inhibitory concentration (MIC) values that were obtained are summarized in Table 1 (please refer to Table S1 for MIC and MBC values in μM).
(§2) Two bacterial strains were used in the antibacterial assays: Escherichia coli DH5α as a Gram-negative model and Bacillus subtilis 1904-E as a Gram-positive model. Both bacterial strains were donated to our laboratory and can be provided on request by contacting the corresponding authors. Both bacterial strains were incubated at 37 °C and the pre-inoculum incubation time was of 24 h. Liquid Luria-Bertani (LB) medium was used for E. coli DH5α and nutrient broth (NB) for B. subtilis.
(§3) The bacteria cell bank suspensions were thawed and inoculated in the appropriate liquid broth for 24 h at 37 °C with mild agitation. A dilution from these culture solutions was used for the following tests, corresponding to an inoculum of 1 × 10^7 CFU/mL. Stock solutions of all the tested compounds were prepared in DMSO at a concentration of 100 mg/mL, aliquoted, and stored at −20 °C.
(§4) (B) Bacterial cell viability assay: Cell viability was analyzed using a Resazurin (7-Hydroxy-3H-phenoxazin-3-one 10-oxide) assay in a 96-well plate. Once the bacterial cultures of growth inhibition assay had been grown for a total of 24 h, 25 μL of a 0.1 mg/mL resazurin (prepared in LB or NB medium) were added to each well and incubated in the dark at 37 °C for 1 h under stirring. Resazurin has a blue color at the testing pH and turns pink when reduced by the viable bacteria to resorufin. Therefore, pink wells indicate metabolizing bacteria, while blue wells are indicative of bacteria that have lost their ability to convert resazurin to resorufin. Different controls were made in order to corroborate the MBC value obtained by the resazurin assay. The change of color was confirmed at 1, 4, and 24 h after its addition. The viability of bacteria was verified (either confirmed or rejected) by the colony plate-counting method, by seeding 10 μL from the cell culture onto tryptone soy agar plates and observing the presence or absence of bacterial growth after 24 h at 37 °C.

The subject of data set [3] is Bacillus subtilis 1904-E. Description: Bacterial cell viability assay (Resazurin), MBC. The class given is cell-based. Conditions: read-out: B. subtilis MBC. On the procedure: as §1, §2, §3, §4
Where [4] appears, read: Resazurin after 24 h growth, LB medium, minimum of three experiments.
Setting [5] is: mode of at least three experiments.
Where [6] appears, read: 24 h, Resazurin after 24 h growth, nutrient broth, minimum of three experiments.
[7] abbreviates: bacterial cell culture medium/water.

Like-named read-outs stand apart in the source and are kept apart here.

For the molecule `CCCCCCCCCCCCNC(=O)[C@H](C(C)C)n1ccnc1` [Compound 1a], in data set [1], the “CAC Fluorescence, CCM:W, CAC1” value was 0.004 mM. In data set [1], the “CAC Fluorescence, CCM:W, CAC2” value was found to be 0.045 mM. Also, in data set [1], the “CAC Fluorescence, W” value was 0.085 mM. For the same molecule, the MBC in data set [2] (setting [4]) is over 2000 µg/mL; in data set [2] (setting [5]), over 6000 µM; in data set [3] (setting [6]), at most 16 µg/mL; in data set [3] (setting [5]) it was 48 µM.
Turning to `CCCCCCCCCCCCNC(=O)[C@H](Cc1ccccc1)n1cc[n+](Cc2ccccc2)c1` [Compound 3b], in data set [1], the “CAC Fluorescence, CCM:W, CAC1” value is reported as 0.063 mM; the “CAC Fluorescence, CCM:W, CAC2” value stood at 0.33 mM; the “CAC Fluorescence, W” value is given as 0.098 mM. Besides, in data set [2] (setting [4]), the MBC amounted to 128 µg/mL. Besides, the MBC in data set [2] (setting [5]) amounted to 229 µM. Also, the MBC in data set [3] (setting [5]) amounted to 7 µM.
Consider `CCCCNC(=O)[C@H](C(C)C)n1ccnc1` [Compound 2a], for which the “CAC Fluorescence, CCM:W, CAC1” value in data set [1] stood at 2.89 mM. Besides, the “CAC Fluorescence, CCM:W, CAC2” value in data set [1] is recorded as 5.4 mM. The “CAC Fluorescence, W” value in data set [1] is on record as 4.31 mM. The MBC is over 2000 µg/mL in data set [2] (setting [4]), over 9000 µM in data set [2] (setting [5]), over 2000 µg/mL in data set [3] (setting [6]) and over 9000 µM in data set [3] (setting [5]).
Turning to `CCCCNC(=O)[C@H](C(C)C)n1cc[n+](Cc2ccccc2)c1` [Compound 2b], in data set [1], the “CAC Fluorescence, CCM:W, CAC1” value is recorded as 3.46 mM. Further, the “CAC Fluorescence, CCM:W, CAC2” value in data set [1] was 8.4 mM. Also, the “CAC Fluorescence, W” value in data set [1] stood at 4.57 mM. For the same molecule, the MBC was over 2000 µg/mL in data set [2] (setting [4]), over 5000 µM in data set [2] (setting [5]), over 1000 µg/mL in data set [3] (setting [6]) and 2590 µM in data set [3] (setting [5]).
As to `CCCCCCCCCCCCNC(=O)[C@H](C(C)C)n1cc[n+](Cc2ccccc2)c1` [Compound 1b], in data set [1], the “CAC Fluorescence, CCM:W, CAC1” value worked out at 0.006 mM; the “CAC Fluorescence, CCM:W, CAC2” value worked out at 0.048 mM; the “CAC Fluorescence, W” value was 0.084 mM. Moreover, in data set [1] (setting [7]), the “first break point (I1/I3 vs concentration)” value was 6 µM and the “second break point (I1/I3 vs concentration)” value is reported as “ca. 48 μM”. Moreover, the MBC in data set [2] (setting [4]) amounted to 256 µg/mL. For the same molecule, the MBC in data set [2] (setting [5]) was found to be 581 µM. Also, in data set [3] (setting [6]), the MBC is at most 16 µg/mL. Moreover, the MBC in data set [3] (setting [5]) was found to be 18 µM.
`CCCCCCCCCCCCNC(=O)[C@H](C(C)C)n1cc[n+](Cc2cccc(C[n+]3ccn([C@@H](C(=O)NCCCCCCCCCCCC)C(C)C)c3)c2)c1` [Compound 1c]: the “CAC Fluorescence, CCM:W, CAC1” value in data set [1] turned out to be 0.016 mM. Also, the “CAC Fluorescence, CCM:W, CAC2” value in data set [1] was 0.21 mM. In data set [1], the “CAC Fluorescence, W” value was 0.010 mM. In addition, the MBC in data set [2] (setting [4]) worked out at 256 µg/mL; in data set [2] (setting [5]), 269 µM; in data set [3] (setting [6]), 32 µg/mL; in data set [3] (setting [5]) it was 34 µM.
In the case of `CCCCCCCCCCCCNC(=O)[C@H](Cc1ccccc1)n1ccnc1` [Compound 3a], the “CAC Fluorescence, CCM:W, CAC1” value in data set [1] is listed as 0.018 mM. In addition, the “CAC Fluorescence, CCM:W, CAC2” value in data set [1] was 0.325 mM. The “CAC Fluorescence, W” value in data set [1] came to 0.033 mM. Also, the MBC in data set [2] (setting [4]) is over 2000 µg/mL; in data set [2] (setting [5]) it was over 5000 µM; in data set [3] (setting [6]) it was at most 16 µg/mL; in data set [3] (setting [5]) it was 42 µM.
For the molecule `CCCCNC(=O)[C@H](C(C)C)n1cc[n+](Cc2cccc(C[n+]3ccn([C@@H](C(=O)NCCCC)C(C)C)c3)c2)c1` [Compound 2c], in data set [1], the “CAC Fluorescence, CCM:W, CAC1” value was 2.25 mM. The “CAC Fluorescence, CCM:W, CAC2” value in data set [1] was found to be 3.54 mM. The “CAC Fluorescence, W” value in data set [1] was determined as 2.34 mM. The MBC is over 2000 µg/mL in data set [2] (setting [4]), over 2900 µM in data set [2] (setting [5]), 256 µg/mL in data set [3] (setting [6]) and 361 µM in data set [3] (setting [5]).
For the molecule `CCCCCCCCCCCCNC(=O)[C@@H](Cc1ccccc1)n1cc[n+](Cc2cccc(C[n+]3ccn([C@@H](Cc4ccccc4)C(=O)NCCCCCCCCCCCC)c3)c2)c1` [Compound 3c], the MBC in data set [2] (setting [4]) was 2000 µg/mL; in data set [2] (setting [5]), 1990 µM; in data set [3] (setting [6]), 64 µg/mL; in data set [3] (setting [5]), 62 µM.

These data come from article PMC7767166, “Imidazole and Imidazolium Antibacterial Drugs Derived from Amino Acids” (Pharmaceuticals, 2020).
